Test results reported in the NIST ThermoML archive (doi:10.1021/je0502344).

Tests used:
[1] = 101.33 kPa, Liquid
[2] = xn = mol fraction of the nth substance listed; conditions: 101.33 kPa, Liquid

CCCCCCCCCC=O [decanal]
[1]
Conditions | mass density [kg/m3] | viscosity [mPa·s]
298.15 K | 801.24 | 1.56
308.15 K | 789.05 | 1.412
318.15 K | 776.18 | 1.281

CCCCCCCCCC=O [decanal] + CCO
[2]
Conditions | mass density, 298.15 K [kg/m3] | mass density, 308.15 K [kg/m3] | mass density, 318.15 K [kg/m3] | viscosity, 298.15 K [mPa·s] | viscosity, 308.15 K [mPa·s] | viscosity, 318.15 K [mPa·s]
x1 = 0.1011 | 785.98 | 778.7 | 764.59 | 1.128 | 0.939 | 0.808
x1 = 0.2102 | 787.14 | 779.48 | 765.47 | 1.174 | 0.987 | 0.854
x1 = 0.3013 | 788.25 | 780.24 | 766.32 | 1.213 | 1.028 | 0.895
x1 = 0.412 | 789.78 | 781.28 | 767.48 | 1.262 | 1.081 | 0.947
x1 = 0.5105 | 791.31 | 782.32 | 768.64 | 1.308 | 1.131 | 0.997
x1 = 0.5836 | 792.55 | 783.15 | 769.58 | 1.343 | 1.169 | 1.035
x1 = 0.6889 | 794.48 | 784.47 | 771.05 | 1.395 | 1.226 | 1.092
x1 = 0.8008 | 796.73 | 785.99 | 772.76 | 1.452 | 1.29 | 1.157
x1 = 0.9145 | 799.23 | 787.68 | 774.65 | 1.513 | 1.358 | 1.226
x1 = 1 | 801.24 | 789.05 | 776.18 | 1.56 | 1.412 | 1.281

CCO [ethanol]
[1]
Conditions | mass density [kg/m3] | viscosity [mPa·s]
298.15 K | 785.08 | 1.088
308.15 K | 778.09 | 0.897
318.15 K | 763.91 | 0.767

CCO [ethanol] + CCCCCC=O
[2], x2 = 0
Conditions | mass density [kg/m3] | viscosity [mPa·s]
298.15 K | 785.08 | 1.088
308.15 K | 778.09 | 0.897
318.15 K | 763.91 | 0.767

CCO [ethanol] + CCCCCCCC=O
[2], x2 = 0
Conditions | mass density [kg/m3] | viscosity [mPa·s]
298.15 K | 785.08 | 1.088
308.15 K | 778.09 | 0.897
318.15 K | 763.91 | 0.767

CCO [ethanol] + CCCCCCCCC=O
[2], x2 = 0
Conditions | mass density [kg/m3] | viscosity [mPa·s]
298.15 K | 785.08 | 1.088
308.15 K | 778.09 | 0.897
318.15 K | 763.91 | 0.767

CCO [ethanol] + CCCCCCCCCC=O
[2], x2 = 0
Conditions | mass density [kg/m3] | viscosity [mPa·s]
298.15 K | 785.08 | 1.088
308.15 K | 778.09 | 0.897
318.15 K | 763.91 | 0.767

CCCCCC=O [hexanal]
[1]
Conditions | mass density [kg/m3] | viscosity [mPa·s]
298.15 K | 833.12 | 0.805
308.15 K | 818.94 | 0.716
318.15 K | 804.31 | 0.639

CCCCCC=O [hexanal] + CCO
[2]
Conditions | mass density, 298.15 K [kg/m3] | mass density, 308.15 K [kg/m3] | mass density, 318.15 K [kg/m3] | viscosity, 298.15 K [mPa·s] | viscosity, 308.15 K [mPa·s] | viscosity, 318.15 K [mPa·s]
x1 = 0.1094 | 788 | 780.57 | 766.36 | 1.053 | 0.875 | 0.752
x1 = 0.2049 | 791.01 | 783.13 | 768.9 | 1.023 | 0.857 | 0.739
x1 = 0.3226 | 795.33 | 786.81 | 772.53 | 0.987 | 0.834 | 0.723
x1 = 0.4037 | 798.69 | 789.67 | 775.36 | 0.963 | 0.819 | 0.712
x1 = 0.5027 | 803.22 | 793.52 | 779.17 | 0.935 | 0.801 | 0.7
x1 = 0.6207 | 809.24 | 798.64 | 784.23 | 0.902 | 0.78 | 0.685
x1 = 0.7108 | 814.29 | 802.93 | 788.47 | 0.878 | 0.764 | 0.674
x1 = 0.81 | 820.3 | 808.04 | 793.53 | 0.852 | 0.747 | 0.662
x1 = 0.9226 | 827.69 | 814.32 | 799.74 | 0.824 | 0.729 | 0.648
x1 = 1 | 833.12 | 818.94 | 804.31 | 0.805 | 0.716 | 0.639

CCCCCCCCC=O [nonanal]
[1]
Conditions | mass density [kg/m3] | viscosity [mPa·s]
298.15 K | 831.04 | 1.392
308.15 K | 818.01 | 1.251
318.15 K | 804.72 | 1.127

CCCCCCCCC=O [nonanal] + CCO
[2]
Conditions | mass density, 298.15 K [kg/m3] | mass density, 308.15 K [kg/m3] | mass density, 318.15 K [kg/m3] | viscosity, 298.15 K [mPa·s] | viscosity, 308.15 K [mPa·s] | viscosity, 318.15 K [mPa·s]
x1 = 0.1034 | 787.7 | 780.37 | 766.24 | 1.116 | 0.928 | 0.798
x1 = 0.2039 | 790.72 | 782.99 | 768.92 | 1.144 | 0.96 | 0.83
x1 = 0.293 | 793.79 | 785.65 | 771.64 | 1.169 | 0.989 | 0.859
x1 = 0.3939 | 797.7 | 789.05 | 775.11 | 1.199 | 1.023 | 0.893
x1 = 0.5045 | 802.52 | 793.24 | 779.4 | 1.232 | 1.061 | 0.931
x1 = 0.5943 | 806.85 | 797 | 783.24 | 1.26 | 1.093 | 0.964
x1 = 0.7116 | 813.07 | 802.4 | 788.76 | 1.297 | 1.137 | 1.009
x1 = 0.7855 | 817.31 | 806.08 | 792.53 | 1.32 | 1.165 | 1.038
x1 = 0.898 | 824.25 | 812.11 | 798.69 | 1.357 | 1.209 | 1.084
x1 = 1 | 831.04 | 818.01 | 804.72 | 1.392 | 1.251 | 1.127

CCCCCCCC=O [octanal]
[1]
Conditions | mass density [kg/m3] | viscosity [mPa·s]
298.15 K | 821.07 | 1.2
308.15 K | 807.34 | 1.074
318.15 K | 793.85 | 0.965

CCCCCCCC=O [octanal] + CCO
[2]
Conditions | mass density, 298.15 K [kg/m3] | mass density, 308.15 K [kg/m3] | mass density, 318.15 K [kg/m3] | viscosity, 298.15 K [mPa·s] | viscosity, 308.15 K [mPa·s] | viscosity, 318.15 K [mPa·s]
x1 = 0.1077 | 787.23 | 779.83 | 765.7 | 1.1 | 0.915 | 0.786
x1 = 0.2019 | 789.45 | 781.64 | 767.54 | 1.11 | 0.93 | 0.803
x1 = 0.3178 | 792.62 | 784.21 | 770.18 | 1.122 | 0.95 | 0.825
x1 = 0.3977 | 795.08 | 786.22 | 772.23 | 1.131 | 0.964 | 0.84
x1 = 0.4952 | 798.4 | 788.92 | 774.99 | 1.142 | 0.981 | 0.859
x1 = 0.6115 | 802.81 | 792.5 | 778.66 | 1.155 | 1.001 | 0.883
x1 = 0.7003 | 806.51 | 795.5 | 781.74 | 1.165 | 1.018 | 0.901
x1 = 0.798 | 810.9 | 799.07 | 785.39 | 1.176 | 1.036 | 0.921
x1 = 0.9089 | 816.3 | 803.46 | 789.88 | 1.189 | 1.057 | 0.945
x1 = 1 | 821.07 | 807.34 | 793.85 | 1.2 | 1.074 | 0.965
